Laboratory results taken from patent US10744179B2, “Method for treatment of inflammatory skin disorders with inhibitors of IL-36 proteolytic processing” (THE PROVOST, FELLOWS, FOUNDATION SCHOLARS, & THE OTHER …, priority 2014, dated 2020).
No end group written: not given here. *: point of attachment. CH2Cl = ClC*

Columns and labels:
[1] = test system: IL-36α activation by activated neutrophil degranulates; assay: IL-36α activation by PMA-activated neutrophil degranulates, HeLa IL-36R bioassay (cytokine ELISA); format: cell-based, human; conditions: FIG. 5; IL-36α pre-incubated 2 h at 37° with degranulates ± PMSF (1 mM) or Cathepsin G inhibitor 1 (10 μM); HeLa IL36R, cytokine ELISA after 24 h
[2] = test system: IL-36β activation by activated neutrophil degranulates; assay: IL-36β activation by PMA-activated neutrophil degranulates, HeLa IL-36R bioassay (cytokine ELISA); conditions: HeLa IL36R; for inhibition of the activation of IL-36β by activated neutrophil degranulates: FIG. 5, IL-36β pre-incubated 2 h at 37° with degranulates ± PMSF (1 mM) or Cathepsin G inhibitor 1 (10 μM), cytokine ELISA after 24 h; for inhibition of IL-36β activation by neutrophil degranulates (peptide panel): FIG. 6, 29, 30, degranulates pre-incubated 30 min on ice with peptide titration (20-0.625 μM), then IL36β 2 h at 37°, IL-6 ELISA after 24 h
Procedure: FIG. 29 are graphs showing Neutrophils degranulates pre-incubated for 30 min on ice in the presence or absence of a titration of peptide (20, 10, 5, 2.5, 1.25, 0.625 μM) followed by addition of IL36β for 2 h at 37°. HeLa^IL36R were stimulated for 24 h. IL-6 cytokine concentrations in culture supernatants were determined by ELISA. Note: Elast I-IV serves as negative controls for IL-36β assay.
Primary neutrophils were purified from donor human blood using the plasma-Percoll gradient method. Purity of cell preparations (>90%) was determined by Hematoxylin and Eosin staining of cytospins. To prepare degranulates, neutrophils (10^7 per treatment) were stimulated in the presence or absence of 50 nM PMA in HBSS/0.25% BSA for 1-3 h at 37° C. in a humidified atmosphere with 5% CO2. Supernatants were harvested and clarified by centrifugation. Degranulate aliquots were stored at −80°.
Reactions (40-100 μl final volume) were carried out in protease reaction buffer (50 mM Hepes, pH 7.4/75 mM NaCl/0.1% CHAPS) for 2 h at 37°.
Cytokines and chemokines were measured from cell culture supernatants using specific ELISA kits obtained from R&D systems (human IL-6, IL-8, CXCL1, MCP-1, IL-17C). Each assay was repeated a minimum of three times and all cytokine assays were carried out using triplicate samples from each culture.

[3] = test system: IL-36β activation by psoriatic skin eluates; assay: IL-36β activation by psoriatic skin eluates, HeLa IL-36R bioassay (IL-8 ELISA); format: cell-based, human; conditions: FIG. 40c, IL-36β 500 pM pre-incubated 2 h at 37° with eluates ± cathepsin G inhibitor 1 (10 μM)
Procedure: (§1) Fixomull (2 cm×2 cm) adhesive tape strips were applied to a healthy or psoriatic skin, under firm pressure for 10 seconds. […] Sample eluates were stored at −80° C. Enzymatic assays and bioassays were setup using control and psoriatic eluates as described above.

[4] = test system: IL-36α activation by psoriatic skin eluates; assay: IL-36α activation by psoriatic skin eluates, HeLa IL-36R bioassay (IL-8 ELISA); format: cell-based, human; conditions: FIG. 40c, IL-36α 500 pM pre-incubated 2 h at 37° with eluates ± cathepsin G inhibitor 1 (10 μM)
Procedure: as §1

Molecule	inhibition of the activation of IL-36α by activated neutrophil degranulates [1]	inhibition of the activation of IL-36β by activated neutrophil degranulates [2]	inhibition of IL-36β activation by neutrophil degranulates (peptide panel) [2]	attenuation of IL-36β activation by psoriatic skin eluates [3]	attenuation of IL-36α activation by psoriatic skin eluates [4]
O=S(=O)(F)Cc1ccccc1 [PMSF, phenylmethanesulfonylfluoride]	robustly inhibited	robustly inhibited	–	–	–
Ala-Phe-Leu-Phe-CMK (AFLF; not fully specified; C-terminal chloromethyl ketone; N-terminal Z; printed: Ala-Phe-Leu-Phe-) [AFLF-CMK]	–	–	most potent inhibitors	–	–
CN(C(=O)c1cc2ccccc2cc1C(=O)C(c1cccc2ccccc12)P(=O)(O)O)C1CCN(C(=O)c2ccccc2)CC1 (stereo not drawn) [Cathepsin G Inhibitor I]	robustly inhibited	robustly inhibited	–	attenuated	attenuated
FLF-CMK: Cathepsin G-inhibitory peptide Phe-Leu-Phe with chloromethyl ketone (CMK) at the C-terminus (Phe-Leu-Phe-CH2Cl)	–	–	most potent inhibitors	–	–
Glu-Pro-Phe-CMK (Glu-Pro-Phe-CH2Cl) [EPF-CMK]	–	–	most potent inhibitors	–	–
